Results published in publication PMC12549899 (Nature Communications, 2025).
pIC50: −log10 of the molar value.

Molecular target: T1, DrOTOP1 G130W/E384A (Danio rerio, UniProt Q7ZWK8, E384A/G130W)
T1 construct: A previously generated codon-optimized full-length DrOTOP1[8]; (UniProt: Q7ZWK8) construct; expressed in transfected cells; host or cells: HEK-293 (CRL-1573, ATCC)
T1 sequence (Q7ZWK8 1-586 G130W/E384A): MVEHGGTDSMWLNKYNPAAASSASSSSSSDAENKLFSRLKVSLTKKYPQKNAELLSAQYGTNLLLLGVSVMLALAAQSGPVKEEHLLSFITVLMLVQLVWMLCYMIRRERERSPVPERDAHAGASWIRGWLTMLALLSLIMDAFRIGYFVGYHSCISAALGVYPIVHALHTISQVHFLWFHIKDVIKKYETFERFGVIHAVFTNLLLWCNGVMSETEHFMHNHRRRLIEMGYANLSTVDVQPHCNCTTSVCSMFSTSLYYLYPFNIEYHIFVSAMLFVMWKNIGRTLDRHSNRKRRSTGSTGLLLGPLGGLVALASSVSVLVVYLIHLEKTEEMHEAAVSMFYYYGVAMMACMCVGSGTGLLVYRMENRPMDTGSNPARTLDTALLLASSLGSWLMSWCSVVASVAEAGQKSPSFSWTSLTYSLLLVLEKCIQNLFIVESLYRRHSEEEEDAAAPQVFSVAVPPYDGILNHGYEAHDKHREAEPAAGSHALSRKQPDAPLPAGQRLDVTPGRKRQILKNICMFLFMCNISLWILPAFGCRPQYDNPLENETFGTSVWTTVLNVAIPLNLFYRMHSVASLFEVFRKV
Experiment: Whole-cell patch-clamp, inhibition of acid-evoked currents, DrOTOP1 G130W/E384A
Format: cell-based, zebrafish (Danio rerio)
Protocol: Given our limited success in identifying mutations of the central site that disrupt antagonism by C2.2, we tested whether mutations of the central site in a background of G130W (the most impactful outer site mutation) might unmask contributions of this site. Thus, we generated and tested double mutants of G130W with E384A, A274W, and A388W. […] We also measured the dose-dependence of inhibition by C2.2 for both G130W/A388W and G130W/E384A (Fig. 5I, J). […] G130W was tested in parallel to confirm that 100 and 300 μM C2.2 produced dose-dependent inhibition.
HEK-293 cells (CRL-1573, ATCC) were cultured in DMEM (Thermofisher 11995073) containing 10% fetal bovine serum (Life Technology 16000044) and Penicillin-Streptomycin (100 I.U./mL) and (100 µg/mL), respectively. Cells were transfected with WT DrOTOP1 or mutant DrOTOP1 channels in 35 mm petri dishes, with ~ 500 ng DNA and 2 μL TransIT-LT1 transfection reagent (Mirus Bio Corporation, Cat # MIR2300) following the manufacturer’s protocol. All constructs were subcloned into a pcDNA3.1 vector that adds an N-terminal fusion tag consisting of an octahistidine tag followed by eGFP, a Gly-Thr-Gly-Thr linker and a 3C protease cleavage site ([…]) followed by WT DrOTOP1, WT mOTOP1, WT hOTOP1, or mutated DrOTOP1. Point mutations were generated via In-Fusion Cloning (Takara) using single-stranded DNA primers generated through IDT and sequence confirmed by Sanger sequencing (GeneWiz).
Whole-cell patch-clamp recording was performed as previously described[6],[22],[25]. Recordings were made with an Axopatch 200B amplifier, digitized with a Digidata 1322a 16-bit data acquisition system, acquired with pClamp 8.2 and analyzed with Clampfit 10 (Molecular Devices). Recordings were sampled at 5 kHz and filtered at 1 kHz. Patch Pipettes with resistance of […] were fabricated from borosilicate glass, and only recordings with a giga-Ohm seal were used in analysis. Membrane potential was held at −80 mV for the duration of recordings. At the beginning of recordings and between, cells were washed with Tyrode’s solution (see below). Once a giga-Ohm seal was reached, cells were lifted and placed in front of microcapillary tubes controlled by a Fast-Step perfusion system (Warner Instruments) so that extracellular solutions could be rapidly exchanged during each experiment.
Standard Tyrode’s solution consisted of 145 mM NaCl, 5 mM KCl, MgCl2, 2 mM CaCl2, 20 mM D-Glucose, and 10 mM HEPES (for pH 7.4). All other extracellular patch-clamp solutions contained 160 mM NMDG-Cl, 2 mM CaCl2, and the following buffers: 10 mM HEPES (for pH 7.4), 10 mM MES (for pH 6.5-5.5), 10 mM CHES for pH 10, and 10 mM HomoPIPES for (pH 5.0). pH adjusted with HCl. […]
All data are presented as mean ± SEM unless otherwise noted, and each data point represents an independent replicant. Inhibition of compounds was quantified as ((I2peak-I1)/(I2peak))*100, where I1 is the current immediately before wash-off and I2peak is the maximum recovered current (Supplementary Fig. 2). Hill coefficients were determined by the following equation: Y = Bmax*X^h/(Kd^h + X^h). Absolute IC50 was determined by the following equation: Fifty = (Top + Baseline)/2 Y = Bottom + (Top-Bottom)/(1 + ((Top-Bottom)/(Fifty-Bottom) − 1)*(AbsoluteIC50/X)^HillSlope). pH50 curves (Fig. 6G inset) were determined using the following equation: Y = Bottom + (Top-Bottom)/(1 + (EC/X)^HillSlope) where EC = EC50 control. […]

C=C(C)COc1ccccc1NC(=O)c1nc[nH]c1C [C2.2]
inhibition at 10 µM (10 µM, DrOTOP1 G130W/E384A, single cells or mean): 3.23% | inhibition at 300 µM (DrOTOP1 G130W/E384A, saturated by 100 µM, no further inhibition at 300 µM, read-out: Maximal inhibition (saturation)): ~50% | HillSlope (G130W/E384A, best-fit value): 2.538 | LogAbsoluteIC50 (G130W/E384A, best-fit value): 1.644 | pIC50 (G130W/E384A, best-fit value, Top fitted, Bottom = 0, read-out: AbsoluteIC50): 4.36
